Assay results reported in publication PMC8803746, “Two experts and a newbie: [^18F]PARPi vs [^18F]FTT vs [^18F]FPyPARP—a comparison of PARP imaging agents” (European Journal of Nuclear Medicine and Molecular Imaging, 2021).
Where “and” joins values, the source holds several entries; their conditions need not be identical. Equal entries are not always repeated. Where two headings read alike, the source gives them in different places.

How the values were obtained:
[1] = Blood half-life, two-phase decay fit; format: in vivo, NOD.CB17-Prkdc^scid/J mice; settings: calculated with two-phase decay fit
Protocol: All animal experiments were performed according to the German animal welfare act and approved by the local authorities (Regierungspräsidium Tübingen, R3/18). Animals were housed in individually ventilated cages (IVCs, 5 mice per cage) with bedding and enrichment, and food and water was provided ad libitum. Animals were kept under isoflurane anesthetic (1.5% in pure oxygen, 1.5 l/min) during the experiments. In 1:1 ice-cold Matrigel (Thermo Scientific)/PBS, 1 × 10^7 cells were injected subcutaneously in the right shoulder area of 7-week-old female NOD.CB17-Prkdc^scid/J mice (n = 10 per tracer). After the xenografts reached a suitable size (302 ± 152 mm^3), mice were injected with 12.45 ± 0.87 MBq, 12.68 ± 0.39 MBq, and 12.94 ± 0.45 MBq, respectively, of [^18F]PARPi, [^18F]FPyPARP, and [^18F]FTT and subjected to 1-h dynamic (n = 7 per tracer) or 10-min static (n = 3 per tracer, 1-h resting uptake) PET imaging (Inveon D-PET, Siemens, Knoxville, TN, USA) with subsequent magnetic resonance (MR) anatomical scans using a 7-T Biospec 70/30 USR (Clinscan, Bruker Biospin MRI GmbH) and a T2-weighted spin echo sequence. Five mice of each dynamically acquired group underwent a second, 10-min static PET scan 2-h post-injection (p.i.). Mice were sacrificed by cervical dislocation, the collected organs were weighed, and the tissue uptake was determined by gamma-counting (WIZARD2). Liver and kidney tissue was frozen in Tissue-Tek (Labtech, East Sussex, Britain) and 20-µm slices were prepared for autoradiography. A storage phosphor screen (Molecular Dynamics, Caesarea, Israel) was exposed to the sections for 18 h and scanned at a resolution of 100 µm/px with a STORM phosphor imager (Molecular Dynamics). […]
Statistical analyses are represented as mean values ± standard deviation. […] Blood half-life was calculated using a two-phase decay fit in GraphPad Prism 8. p values < 0.05 were considered statistically significant according to the software (*p < 0.05, **p < 0.01, ***p < 0.001, ****p < 0.0001).

[2] = Serum stability analysis in mouse serum; format: in vitro ADME; settings: C57BL/6 J mouse serum, 37 °C, over 240 min, HPLC
Protocol: (§1) Serum stability was assessed by mixing [^18F]FPyPARP solution 1:1 with C57BL/6 J mouse or human (blood type AB + , Sigma-Aldrich, Steinheim, Germany) serum. After 0-, 30-, 60-, 120-, and 240-min incubation at 37 °C, samples were drawn and the proteins were precipitated by adding ice-cold MeCN to a final concentration of 50%. The supernatant after centrifugation (12,100 × g, 90 s) was analyzed by HPLC as described for radiotracer quality control.

[3] = Serum stability analysis in human serum; format: in vitro ADME; settings: 37 °C, over 240 min, HPLC
Protocol: as §1

[4] = Experimental logP and logD determination (1-octanol/water or PBS, gamma counter); format: physicochemical; settings: experimentally determined; for logD: 1-octanol/PBS; for logP: 1-octanol/water
Protocol: One microliter radiotracer solution (0.4 MBq) was added to a mixture of 500 µl water or PBS and 500 µl 1-octanol. After thorough shaking, the suspension was shortly centrifuged for phase separation, samples were drawn from each phase, and radioactivity concentration was measured in a gamma counter (WIZARD2, PerkinElmer, Waltham, MA, USA).

[5] = test system: HCC1937 xenografts; test: PET/MR imaging and ex vivo biodistribution in xenograft-bearing mice; set-up: species or system NOD.CB17-Prkdc^scid/J mice; settings: for Xenograft uptake (TACs from dynamic PET): 1-h dynamic PET; for tumor-to-muscle ratio (TMR) / tumor-to-blood ratio (TBR): ex vivo biodistribution; for tumor-to-muscle ratio (TMR) / tumor-to-blood ratio (TBR) / liver-to-kidney ratio (LKR): mean value; for Renal clearance / bladder uptake in PET images: i.v., dynamic PET, minutes 50-60
Protocol: All animal experiments were performed according to the German animal welfare act and approved by the local authorities (Regierungspräsidium Tübingen, R3/18). Animals were housed in individually ventilated cages (IVCs, 5 mice per cage) with bedding and enrichment, and food and water was provided ad libitum. Animals were kept under isoflurane anesthetic (1.5% in pure oxygen, 1.5 l/min) during the experiments. In 1:1 ice-cold Matrigel (Thermo Scientific)/PBS, 1 × 10^7 cells were injected subcutaneously in the right shoulder area of 7-week-old female NOD.CB17-Prkdc^scid/J mice (n = 10 per tracer). After the xenografts reached a suitable size (302 ± 152 mm^3), mice were injected with 12.45 ± 0.87 MBq, 12.68 ± 0.39 MBq, and 12.94 ± 0.45 MBq, respectively, of [^18F]PARPi, [^18F]FPyPARP, and [^18F]FTT and subjected to 1-h dynamic (n = 7 per tracer) or 10-min static (n = 3 per tracer, 1-h resting uptake) PET imaging (Inveon D-PET, Siemens, Knoxville, TN, USA) with subsequent magnetic resonance (MR) anatomical scans using a 7-T Biospec 70/30 USR (Clinscan, Bruker Biospin MRI GmbH) and a T2-weighted spin echo sequence. Five mice of each dynamically acquired group underwent a second, 10-min static PET scan 2-h post-injection (p.i.). Mice were sacrificed by cervical dislocation, the collected organs were weighed, and the tissue uptake was determined by gamma-counting (WIZARD2). Liver and kidney tissue was frozen in Tissue-Tek (Labtech, East Sussex, Britain) and 20-µm slices were prepared for autoradiography. A storage phosphor screen (Molecular Dynamics, Caesarea, Israel) was exposed to the sections for 18 h and scanned at a resolution of 100 µm/px with a STORM phosphor imager (Molecular Dynamics). PET image reconstruction and correlation with MR images was performed with Inveon Acquisition Workplace and Inveon Research Workplace, respectively, using a user-defined dynamic framing and an ordered subset expectation maximization (OSEM3D) algorithm. Regions of interest (ROIs) were drawn according to the acquired MR images and co-registered with the PET data to obtain time-activity curves (TACs).
Statistical analyses are represented as mean values ± standard deviation. Analyses were performed using GraphPad Prism 9 and non-parametric t tests (comparison of two groups) and one-way ANOVA (comparison of more than two groups). Blood half-life was calculated using a two-phase decay fit in GraphPad Prism 8. p values < 0.05 were considered statistically significant according to the software (*p < 0.05, **p < 0.01, ***p < 0.001, ****p < 0.0001).

[6] = test system: HCC1937 cells; test: In vitro radiotracer uptake, acid wash; format: cell-based, human; settings: glycine-HCl in PBS 50 mM pH 2.8 vs medium
Protocol: For the acid wash, cells were distributed in 96-well filter plates as described before and incubated with the radiotracer solution for 30 min at 37 °C. After an initial wash with 100 µl medium, cells were either washed twice (1: 100 µl, 2: 200 µl) with medium or with glycine–HCl in PBS (50 mM, pH 2.8) followed by a final wash with 200 µl medium and measured in a gamma counter.

[7] = set-up: method as in PMID 32245901; settings: cited from earlier work
[8] = set-up: method as in PMID 30389822; settings: cited from earlier work
[9] = set-up: method as in PMID 30389822; settings: cited from earlier work; remark: listed apart in the source
[10] = set-up: method as in Lynparza monograph, AstraZeneca; settings: reported value; ref Lynparza monograph, AstraZeneca; cited from earlier work
[11] = test system: ABCB1 (encoding MDR1 P-glycoprotein); set-up: method as in PMID 24700236; settings: cited from earlier work

SMILES | Blood half-life [1] | logD [4] | logP [4] | Xenograft uptake (TACs from dynamic PET) [5] | tumor-to-muscle ratio (TMR) ([5]; 1.5 h p.i.) | tumor-to-blood ratio (TBR) ([5]; 2.5 h p.i.) | tumor-to-muscle ratio (TMR) ([5]; 2.5 h p.i.) | liver-to-kidney ratio (LKR) ([5]; 2.5 h p.i.) | Renal clearance / bladder uptake in PET images [5] | Radiotracer uptake after acidic wash compared to medium wash [6] | also measured
O=C(c1ccc(F)nc1)N1CCN(C(=O)c2cc(Cc3n[nH]c(=O)c4ccccc34)ccc2F)CC1 [[^18F]FPyPARP, 4-(4-Fluoro-3-(4-(6-fluoronicotinoyl)piperazine-1-carbonyl)benzyl)phthalazine-1(2H)-one] | 2.6 ± 1.4 min | 1.16 | 1.16 | within the same range | 1.99 | 3.99 ± 0.99 and 3.99 | 2.46 | 0.60 | all animals exhibiting strong radioactive signal in the bladder | No difference | Serum stability [2]: no significant radiometabolites and good radiotracer stability over 240 min; Serum stability [3]: no significant radiometabolites and good radiotracer stability over 240 min; Change of liver-to-kidney ratio between the 1.5 and 2.5 h time points ([5]; 1.5 h vs 2.5 h p.i.): decreased; Liver uptake (TACs) ([5]; early time points, in direct comparison to [^18F]PARPi): lower uptake values
O=C1NCCn2c(-c3ccc(OCC[18F])cc3)nc3cccc1c32 [[^18F]FTT] | 2.1 ± 0.5 min | 1.94 | 1.1 | higher overall xenograft uptake | – | 2.46 ± 0.35 and 2.46 | 3.42 | – | no noticeable renal clearance | No difference | tumor-to-liver ratio (TLR) ([5]; 1.5 h and 2.5 h p.i.): significantly higher at both time points
O=C(c1ccc([18F])cc1)N1CCN(C(=O)c2cc(Cc3n[nH]c(=O)c4ccccc34)ccc2F)CC1 [[^18F]PARPi] | 3 ± 0.7 min | 2.09 | 2.09 | within the same range | 5.3 | 3.41 ± 0.83 | – | 1.37 | some of the animals showed renal excretion | significantly higher uptake | Time of first appearance of a radiometabolite ([7]; first-in-human clinical studies): 25 min; Renal clearance ([7]; in humans): 30%
O=C(c1cc(Cc2n[nH]c(=O)c3ccccc23)ccc1[18F])N1CCN(C(=O)C2CC2)CC1 [[^18F]olaparib] | – | – | – | – | – | – | – | – | – | – | Clearance route [8]: only shows hepatobiliary clearance; calculated logP [9]: 2.02
O=C(c1cc(Cc2n[nH]c(=O)c3ccccc23)ccc1F)N1CCN(C(=O)C2CC2)CC1 [olaparib] | – | – | – | – | – | – | – | – | – | – | logD [10]: 1.49; Efflux transporter substrate [11]: efflux transporter of olaparib
